{"source": "paper PMC6930524", "about": "“A Prospective Repurposing of Dantrolene as a Multitarget Agent for Alzheimer’s Disease” (Molecules, 2019)", "key": {"[1]": {"test": "DPPH radical scavenging assay", "type": "physicochemical", "conditions": "compound 50 μM, DPPH 100 μM", "description": "(§1) Starting from these evidences, we tested DAN in two in vitro models of radical scavenging activity, i.e., the 1,1-diphenyl-2-picryl-hydrazyl (DPPH) and 2,2′-azinobis-(3-ethylbenzothiazoline-6-sulfonic acid) (ABTS) free radical production. Both generate stable nitrogen radicals showing high absorption in visible spectrum, thus allowing easy and straightforward spectrophotometric measures. […] It can be assumed that the antioxidant activity of DAN is independent from its radical scavenging properties.\n(§2) Already published protocols for DPPH and […] radical scavenging were used. The scavenging of the radical DPPH^·, or the monocation radical ABTS^·+, were determined by measuring the loss of absorbance at 515 or 755 nm, respectively. Samples were prepared in clear polystyrene flat-bottomed 96-well microplates. […] A preliminary absorbance reading at 755 nm allowed to determine the actual ABTS^·+ concentration (normally 60–70 μM; extinction coefficient ε = 12,000) and set the final concentration of inhibitors to 0.2[ABTS^·+]. 215 μL of ABTS^·+ solution were mixed with 35 μL of stock solution of inhibitors and the decrease in absorbance was monitored. Antioxidant activity was determined from Equation (2) as the percentage of radical production of inhibitor containing samples, compared with control: % radical production = 100 × ABSsample/ABScontrol(2)"}, "[2]": {"molecular_target": "T1, human recombinant AChE (hAChE) (Homo sapiens, UniProt P22303)", "T1 construct": "purchased Sigma-Aldrich Europe (Milan, Italy)", "T1 sequence (P22303 32-614)": "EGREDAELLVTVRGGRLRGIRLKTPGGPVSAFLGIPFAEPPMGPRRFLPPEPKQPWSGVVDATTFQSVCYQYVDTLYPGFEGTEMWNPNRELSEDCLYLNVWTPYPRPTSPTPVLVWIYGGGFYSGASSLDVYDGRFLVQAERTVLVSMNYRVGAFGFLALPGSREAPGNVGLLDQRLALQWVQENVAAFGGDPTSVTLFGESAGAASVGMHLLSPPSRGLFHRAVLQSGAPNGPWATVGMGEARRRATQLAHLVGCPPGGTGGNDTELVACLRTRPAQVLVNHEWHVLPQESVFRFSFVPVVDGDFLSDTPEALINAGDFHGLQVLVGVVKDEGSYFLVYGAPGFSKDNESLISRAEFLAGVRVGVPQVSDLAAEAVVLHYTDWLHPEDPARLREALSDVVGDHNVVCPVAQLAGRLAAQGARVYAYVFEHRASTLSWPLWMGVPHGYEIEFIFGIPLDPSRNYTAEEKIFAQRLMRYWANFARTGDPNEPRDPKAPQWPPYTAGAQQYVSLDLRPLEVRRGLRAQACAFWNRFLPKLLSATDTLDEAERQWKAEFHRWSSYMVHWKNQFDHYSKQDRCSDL", "test": "biochemical", "type": "biochemical", "method": "An already published method was used to apply the Ellman’s spectrophotometric assay to the 96-well plate technique. […] Experiments were performed in duplicate in transparent, flat-bottomed polystyrene 96-well microtiter plates, and readings made with Tecan Infinite M1000 Pro instrument."}, "[3]": {"test": "ABTS radical scavenging assay", "type": "physicochemical", "conditions": "compound at 0.2·[ABTS+]", "description": "as §1, §2"}, "[4]": {"design": "method as in PMID 11735355", "conditions": "cited from earlier work"}, "[5]": {"molecular_target": "T2, recombinant wild-type (WT) CAC (Rattus norvegicus, UniProt P97521)", "T2 construct": "made in house; host or cells: Escherichia coli C0214", "T2 sequence (P97521 1-301)": "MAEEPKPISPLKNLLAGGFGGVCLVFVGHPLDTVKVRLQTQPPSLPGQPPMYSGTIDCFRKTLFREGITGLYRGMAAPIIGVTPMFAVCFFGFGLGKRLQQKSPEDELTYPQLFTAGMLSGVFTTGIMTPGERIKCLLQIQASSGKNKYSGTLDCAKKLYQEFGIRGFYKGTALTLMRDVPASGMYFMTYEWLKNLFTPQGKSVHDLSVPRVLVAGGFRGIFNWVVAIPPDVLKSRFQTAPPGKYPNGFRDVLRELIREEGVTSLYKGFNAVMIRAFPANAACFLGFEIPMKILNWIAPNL", "test": "Transport activity of purified recombinant WT CAC reconstituted into liposomes", "type": "biochemical", "method": "To detect the effect of DAN on native CAC, mitochondrial extract was reconstituted into liposomes and transport activity was measured adding various concentrations of compound. In Figure 7A, the dose–response curve is shown. […] Thus, the effect of different concentrations of DAN was tested also on the purified recombinant wild-type (WT) CAC carrier reconstituted into liposomes, measuring the antiport rate of carnitine.\nThe reducing properties of DAN were studied on the recombinant WT CAC with the protein at different states of oxidation. Figure 8B highlights that when the carrier was incubated during the transport activity with 1 mM dithioerythritol (DTE), 10 µM DAN was able to reduce a major aliquot of oxidized protein (70% recovery of activity compared to the control). […] To identify the cysteines responsible for the activation of the CAC carrier, the proteoliposomes of the WT protein and the mutants C136S, C155S, C136/155S, and C-lessV (C23V/C58V/C89S/C136V/C155V/C283S) were incubated with 10 μM DAN. […] Further evidence of the reducing action of DAN on CAC was obtained by oxidation of the reconstituted WT protein under controlled conditions, i.e., in the presence or absence of hydrogen peroxide and its subsequent degradation by the enzyme catalase. […] The addition of 20 µM DAN led to a significant recovery (about 80%) of the transport function, after treatment of the carrier with H2O2.\nThe previously constructed pMW7-WTrat CAC recombinant plasmid was used as a template to introduce mutations in the CAC protein using complementary mutagenic primers and the High Fidelity PCR System (Roche, Basel, Switzerland). The PCR products were purified by the QIAEX II Gel Extraction Kit (QIAGEN, Milan, Italy), digested with the restriction enzymes Nde I and Hind III (New England Biolabs, Ipswich, MA, USA) and ligated into the pMW7 cloning vector (given as a gift). All resulting pMW7-rat CAC constructs were verified by DNA sequencing. Except for the desired base changes, all the sequences corresponded to the CAC coding sequence. Bacterial overexpression was obtained using the expression vector of Escherichia coli C0214 (given as a gift). Wild-type and mutants rat CAC inclusion body fractions were isolated from E. coli, solubilized, and purified as previously described.\nMitochondrial rat liver extract (0.3 mg proteins in 3% Triton X-100) containing native CAC was reconstituted into liposomes by removing the detergent from the mixed micelles through a hydrophobic ion-exchange column containing the resin Amberlite XAD-4, as described previously. The reconstitution mixture of mitochondrial or recombinant CAC proteins was composed of protein, 1% Triton X-100, 10 mg of egg yolk phospholipids (L-α-phosphatidylcholine from fresh turkey egg yolk), in the form of sonicated liposomes, 30 mM NaH2PO4 at pH 7.0, 15 mM carnitine, in a final volume of 680 μL. This mixture was passed 15 times, at room temperature, through the same Amberlite column (Pasteur pipette filled with 0.5 g resin) pre-equilibrated with a buffer containing 30 mM NaH2PO4 at pH 7.0 and 15 mM carnitine.\nBefore starting the transport activity, proteoliposomes were passed through a Sephadex G-75 column (0.7 cm diameter; 15 cm height; Pharmacia, Milan, Italy) to remove the external substrate. The turbid eluate (550 μL) from the Sephadex column was collected and used for transport measurement by the inhibitor-stop method. For uptake measurements, transport at 25 °C was started by adding 0.1 mM [^3H]-carnitine to proteoliposomes and stopped by the addition of 0.1 mM NEM. In control samples, the inhibitor was added together with the labeled substrate at time zero. The experimental values were corrected by subtracting control values. […]"}}}
{"smiles": "O=C1CN(/N=C/c2ccc(-c3ccc([N+](=O)[O-])cc3)o2)C(O)=N1", "note": "[Dantrolene]", "values": [{"measurement": "DPPH radical scavenging activity", "setting": "[1]", "value": "no activity"}, {"measurement": "IC50", "setting": "[2]", "value": "4.19 ± 0.73", "unit": "µM"}, {"measurement": "hAChE inhibition mechanism", "setting": "[2]; Michaelis–Menten / Lineweaver–Burk, substrate acetylthiocoline", "value": "noncomp."}, {"measurement": "potency of AChE inhibition relative to galantamine", "setting": "[2]; fold lower than reference compound galantamine", "value": "seven-fold lower"}, {"measurement": "Ki", "setting": "[2]; substrate acetylthiocoline, mean ± SEM", "value": "6.3 ± 0.15", "unit": "µM"}, {"measurement": "ABTS radical scavenging activity", "setting": "[3]", "value": "no activity"}, {"measurement": "antioxidant potency, Fe3+/Fe2+ reduction", "setting": "[4]", "value": "high antioxidant potency"}, {"measurement": "transport activity of WT CAC over time compared to the control", "setting": "[5]; 10 μM, average values over time intervals", "value": "around 160%"}, {"measurement": "recovery of activity compared to the control", "setting": "[5]; 10 µM, carrier incubated with 1 mM DTE", "value": 70, "unit": "%"}, {"measurement": "recovery of activity", "setting": "[5]; 10 µM, carrier incubated with 50 mM DTE", "value": 25, "unit": "%"}, {"measurement": "increase in transport activity on WT", "setting": "[5]; 10 μM, proteoliposomes of WT protein", "value": 180, "unit": "%"}, {"measurement": "recovery of the transport function after H2O2", "setting": "[5]; 20 µM, after 1 mM H2O2 for 10 min at 37 °C (activity decreased to about 50% without compound)", "value": "about 80%"}, {"measurement": "EC50", "setting": "[5]; after 30 min of incubation, read-out: EC50 of activation of recombinant WT CAC", "value": "9.3 ± 3.1", "unit": "µM"}, {"measurement": "concentration for whole activation of the WT protein", "setting": "[5]; dose–response curve, 30 min", "value": "above 50 μM"}]}
